Reference: article PMC10376059, “New NADPH Oxidase 2 Inhibitors Display Potent Activity against Oxidative Stress by Targeting p22^phox-p47^phox Interactions” (Antioxidants, 2023)

Experiments:
[1] = DPPH radical scavenging activity; format: physicochemical; settings: for antioxidant effects in the pharmacological range (in words): up to 50 μM
Experimental: The newly synthesized compounds were evaluated for 2,2-diphenyl-1-picrylhydrazyl […] free radical scavenging activity. The reduction and stabilization of DPPH by antioxidant compounds lead to discoloration, resulting in a decrease in absorbance at 517 nm, which was expressed as a percentage of the radical solution at a given concentration of discoloration. The heteroarylacrylonitrile derivatives were re-suspended in a minimum of DMSO at a final concentration of 5 mg/mL (stock solution). From these, they were diluted to concentrations of 1000, 500, and 100 μg/mL. These solutions were mixed with a methanol solution of DPPH (20 μg/mL) for 5 min. Each compound was evaluated in triplicate; absorbance at 517 nm in a UNICAM UV/visible spectrophotometer Helios-α (Thermo Electron Corporation, Waltham, MA USA) was measured by subtracting the solvent absorbance and comparing the resulting value with that of a blank sample. The percentage of discoloration was established according to the following formula: % Radical removal or discoloration = (1 − (AM − ABM)/AC) × 100, where AM is the absorbance of the sample compound, ABM is the absorbance of the sample blank, and AC is the absorbance of the control. The degree of discoloration indicates the efficacy of the compounds studied as free radical scavengers; therefore, a percentage of discoloration of 100 indicates the maximum radical scavenging capacity and a value close to 0 indicates a zero radical scavenging capacity. Quercetin was used as a reference compound in a concentration range of 1.25 to 7.5 μg/mL.

[2] = test system: cardiomyocytes isolated from mdx mice; experiment: NOX2-mediated ROS production (DCF-DA, confocal) in mdx cardiomyocytes; format: cell-based, mouse; settings: 1 µM, vs control
Description: Cardiomyocytes were isolated from mdx mice (C57BL/10ScSn-DMDmdx/J, stock number 001801M, Jackson Laboratories, Bar Harbor, […], USA). Male mdx mice of 19 months of age were used, which were housed in individual cages with water and food ad libitum. All the procedures were adjusted to the “Guide for the Care and Use of Laboratory Animals” (1996) of the National Institute of Health and were approved by the Institutional Committee for Animal Care and Use of the Universidad de Talca. Mice were pre-medicated with heparin i.p. (200U.) and then sacrificed by cervical dislocation. The heart was rapidly removed, cannulated through the aorta, and retrogradely perfused in a steady flow (2 mL/min) at 37 °C. The hearts were initially perfused for 10 min with a Ca^2+-free bicarbonate buffer solution containing (in mM) 120 NaCl; 5.4 KCl; 1.2 MgSO4; 1.2 NaH2PO4; 5.6 glucose; 20 NaHCO3; 10 BDM, and 5 taurine, bubbled with a 95% O2–5% CO2 mixture. Enzyme digestion was performed with collagenase type II (1 mg/mL; Worthington Biochemical Corp., Lakewood, NJ, USA) and protease type XIV (0.1 mg/mL; Sigma-Aldrich) as previously reported. Isolated cardiomyocytes were transferred to 1.5 mL Eppendorf tubes and preincubated with the heteroaryl acrylonitrile compounds.
Cardiomyocytes isolated from mdx mice were transferred to Eppendorf tubes to be incubated with 1 μM of the indole heteroaryl-acrylonitrile derivatives for 30 min, protected from light, at room temperature. VAS2870 (20 μM) was used as a positive control for NOX2 inhibition. 2′,7′-dichlorofluorescein diacetate (DCF-DA) (10 μM) was then added and incubated for 15 min. Subsequently, it was allowed to sediment by gravity to remove the supernatant, and the pellets obtained were in a phosphate saline solution (PBS). 200 μL of the cell suspension were placed on pre-treated polylysine slides (Thermo Fischer, USA) and fixed with 2% paraformaldehyde (Sigma-Aldrich®, St. Louis, MO, USA) for 10 min at 4 °C. […] From the acquired images, the fluorescence intensity was quantified at 495 nm, and the data were reported as fluorescence intensity per pixel.

N#C/C(=C\c1cc(-c2ccccc2)on1)C(=O)c1c[nH]c2ccccc12 [Compound C6]
antioxidant capacity, DPPH discoloration (in words) [1]: showed antioxidant capacity only at very high concentrations
antioxidant effects in the pharmacological range (in words) [1]: minimal
DCF fluorescence intensity, NOX2-derived ROS (in words) [2]: significant decrease in fluorescence intensity

N#C/C(=C\c1ccncc1)C(=O)c1c[nH]c2ccccc12 [Compound C14]
antioxidant capacity, DPPH discoloration (in words) [1]: showed antioxidant capacity only at very high concentrations
antioxidant capacity, DPPH discoloration ([1]; concentration range 30–300 μM): 12%
antioxidant effects in the pharmacological range (in words) [1]: minimal
DCF fluorescence intensity, NOX2-derived ROS (in words) [2]: significant decrease in fluorescence intensity
